Where “and” joins values, the source holds several entries; their conditions need not be identical. Equal values may be shown once. Marks after values point to notes of the source that are not given here.
Legend:
[1] = tested on: Arabidopsis HST transgenic tobacco plants; assay: Glasshouse spray test, Arabidopsis HST transgenic tobacco; type: in vivo; details: D2 line (Arabidopsis HST, segregating T1), individual plants
[2] = tested on: wild-type (WT) Samsun tobacco; assay: Glasshouse spray test, wild-type tobacco; type: in vivo; details: for % damage at 7 DAT: WT Samsun, individual plants
Procedure: Rooted transgenic T0 plantlets are transferred from agar and potted into 50% peat, 50% John Innes soil no 3 or, for example, MetroMix® 380 soil (Sun Gro Horticulture, Bellevue, Wash.) with slow-release fertilizer in 3 inch round or 4 inch square pots and left regularly watered to establish for 8-12 d in the glass house. Glass house conditions are about 24-27° C. day; 18-21° C. night and approximately a 14 h (or longer in UK summer) photoperiod. Humidity is ˜65% and light levels up to 2000 μmol/m^2 at bench level. Once new tissue emerges and plants they have reached the 2-4 leaf stage some of the clones from each event are sprayed with test chemicals dissolved in water with 0.2-0.25% X-77 surfactant and sprayed from a boom on a suitable track sprayer moving at 2 mph in a DeVries spray chamber with the nozzle about 2 inches from the plant tops. Spray volume is suitably 25 gallons per acre or, for example, […].
Test chemicals are, for example, compound 2.3 at 500 g/ha. At the same time that transgenic plants are sprayed so too are w/t Samsun tobacco plants grown from seed as well as non-transgenic plants regenerated from tissue culture and non-transgenic tissue culture escapes. Damage is assessed versus unsprayed control plants of like size and development.
6 Seed from w/t Samsun tobacco and 8 T1 seed from events B8 and G9 are also planted out in 3 inch pots, grown on for 7 to 12 d and then, as described in the foregoing examples, the plantlets spray tested for resistance to various chemicals and assessed at 14 DAT. Chemicals are formulated in 0.2% X77 and sprayed at a spray volume of 200 l/ha.
(§1) Seed of wild-type tobacco plants, C2 tobacco plants and of the T1 progeny of a further Arabidopsis-HST expressing tobacco line, D2 were planted out in 3 inch pots, grown on, sprayed with compounds 1.1, 2.30 and 3.6 at the rates shown in table 5. Percent damage scores were assessed at 7 DAT. Aside from the presumptive non-transgenic segregants the D2 line containing the Arabidopis HST expression construct offered the highest level of tolerance to the two HST herbicides with the Psuedomonas HPPD, C2 line, offering only marginal tolerance under the conditions of this test.
(§2) Single copy events amongst the T1 plant lines are identified by their 3:1 segregation ratio (wrt kanamycin and or herbicide) and by quantitative RT-PCR. Seed from the thus selected T1 tobacco (var Samsun) lines are sown in 3 inch diameter pots containing 50% peat, 50% John Innes soil no 3. After growth to the 3 leaf stage, plants are sprayed, as described above, in order to test for herbicide tolerance relative to like-treated non-transgenic tobacco plants.
(§3) Control tobacco plants and transgenic T1 plants expressing either the Pseudomonas or the wheat HPPD gene are sprayed at 37, 111, 333 and 1000 g/ha rates of HST inhibitors and, for example, compound 2.3.
(§4) Plants are assessed and scored for % damage at 16 DAT.

[3] = tested on: tobacco plants expressing Pseudomonas fluorescens HPPD; assay: Glasshouse spray test, Pseudomonas HPPD transgenic tobacco; type: in vivo; details: C2 line (Pseudomonas HPPD, T2), individual plants
Excerpt: Tobacco plants expressing the wild-type HPPD gene of Pseudomonas fluorescens strain 87-79 under operable control of the double enhanced 35S CMV promoter region, Nos3′ terminator and TMV translational enhancer were provided as detailed in Example 4 of WO0246387.
as §1
Transgenic lines of tobacco, soyabean and corn etc. can be engineered to express various heterologous HPPDs derived from, for example Avena (SEQ ID #26), Wheat (SEQ ID #27), Pseudomonas fluorescens (SEQ ID # 25) and Shewanella colwelliana (SEQ ID #28) as, for example, described in WO 02/46387.
as §2, §3, §4

Chlamydomonas HST = target: T1, Chlamydomonas HST (Chlamydomonas reinhardtii, UniProt A1JHN0); assay: HST assay (TLC, MFBQ formed), recombinant Chlamydomonas HST in E. coli membranes; type: biochemical; details: 25 ppm; TLC, estimated amount of MFBQ formed, relative to controls; read-out: Chlamydomonas. HST % I at 25 ppm
T1 construct: GST (N); made in house; host or cells: E. coli (BL21A1 / BL21DE3), membrane fraction
T1 sequence (A1JHN0 51-370): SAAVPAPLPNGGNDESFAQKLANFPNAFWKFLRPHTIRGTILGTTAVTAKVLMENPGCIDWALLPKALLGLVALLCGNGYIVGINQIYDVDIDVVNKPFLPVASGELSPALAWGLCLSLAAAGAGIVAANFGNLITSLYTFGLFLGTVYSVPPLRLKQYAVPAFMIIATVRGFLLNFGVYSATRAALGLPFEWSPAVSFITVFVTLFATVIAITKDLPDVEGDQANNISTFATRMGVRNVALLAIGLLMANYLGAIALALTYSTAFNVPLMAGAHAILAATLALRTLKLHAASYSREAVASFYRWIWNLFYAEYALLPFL
Outline: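 Recombinant GST-fused Chlamydomonas HST in E. coli membranes was incubated with 200 μM farnesyl diphosphate and 100 μM 14C-homogentisate in 50 mM Tricine-NaOH pH 8.5, 20 mM MgCl2 for ~20 min at 28 °C, with compounds in DMSO. Oxidised plus reduced MFBQ was quantified by TLC phosphorimaging. Results are percent inhibition versus no-inhibitor control across doses.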

[4] = tested on: HST in spinach chloroplast extract; assay: HST assay (TLC, MFBQ formed), spinach chloroplast extract; type: biochemical; details: 25 ppm; TLC, estimated amount of MFBQ formed, relative to controls
Procedure: HST enzyme preparations for assay are also prepared directly from fresh plant material. For example HST enzyme preparations are from spinach. In the first step intact spinach chloroplasts are prepared from two lots of 500 g of fresh baby spinach leaves (e.g from the salad section of the local supermarket). Prepacked spinach is usually already washed, but if buying loose leaves these must be rinsed in water before proceeding. Stalks, large leaves and mid-ribs are removed. Each 500 g lot of leaves is added to 1.5 l of ‘Grinding medium’ in a 2 L plastic beaker. Grinding medium is cold (4° C.) 50 mM Tricine/NaOH buffer at pH 7.1 containing 330 mM glucose, 2 mM sodium isoascorbate, 5 mM MgCl2 and 0.1% bovine serum albumen The beaker, kept at 4° C., is placed under a Polytron 6000 blender, fitted with a 1.5″cutting probe and the mixture blended in short bursts of 5-8 sec up to 8-10K rpm until all the leaves are macerated. The homogenate is filtered into a 5 L beaker (embedded in an ice bucket) through four layers of muslin, and two layers of 50μ mesh nylon cloth. The filtrate is transferred to 250 ml buckets of a Beckman GS-6 centrifuge and spun at […] (3020 rpm) for 2 min at 4° C. The supernatant is drained away and discarded to leave a sediment of chloroplasts. Chloroplasts are resuspended in a few ml of cold resuspension medium by gentle swirling and gentle use of a quill brush soaked in resuspension medium. Resuspension medium is 50 mM Hepes/KOH pH 7.8 containing 330 mM sorbitol, 2 mM EDTA, 5 mM KH2PO4, 2 mM MgCl2 and 0.1% bovine serum albumen at 4° C. The chloroplasts are resuspended in 5-10 ml of resuspension buffer, recentrifuged down and resuspended again in order to wash them. The chloroplasts are then once again centrifuged down and then broken by resuspension in about 5 ml of 50 mM Tricine-NaOH pH 7.8 to a protein concentration of about 40 mg/ml. The solution is stored frozen at −80° C. in aliquots. This resuspension is defrosted and used directly in HST activity assays. Alternatively, chloroplasts are prepared resuspended in 50 mM Tris/HCl buffer at pH 7.8 containing 330 mM sorbitol (alternative resuspension buffer) and layered on top of a percol gradient (comprising the same buffer containing 45% percol), spun down, the intact chloroplast fraction taken and washed 2 or 3 times in the alternative resuspension buffer and then spun down again, resuspended in breaking buffer (without sorbitol), flash frozen and stored in aliquots at −80° C.
Prenyltransferase (HST) activities are measured by determining the prenylation rates of [U—^14C]homogentisate using farnesyl diphosphate (FDP) as prenyl donor. ^14C homogentisate is prepared from ^14C tyrosine using L amino acid oxidase and HPPD. For inhibitor testing, compounds are dissolved in dimethylsulfoxide (DMSO). DMSO added at up to 2% v/v has no effect on assays. Control assays contain DMSO at the same concentration as in inhibitor containing assays.
Assays using spinach chloroplast extracts (100 μl final volume) contain up to 2 mg of chloroplast protein, 50 mM Tricine-NaOH pH 8.5, 50 mM MgCl2, 200 μM farnesyl diphosphate (FDP) and 26 μM ^14C-homogentisate (167 dpm/pmol). Assays are run for about an hour at 28° C. […] Lipophilic reactions products are extracted and analyzed essentially as described in the literature.
Using the above assays percentage inhibition of the amount of MFBQ formed at a range of doses of inhibitors relative to the control amount obtained with no inhibitor present is reported (Table 1). The better inhibitors give greater percentage inhibition at lower doses.

Arabidopsis HST = target: T2, Arabidopsis HST (Arabidopsis thaliana, UniProt Q1ACB3); assay: HST total extraction (non TLC) assay, recombinant Arabidopsis HST from insect cells; type: biochemical; details: 3 point dose curves only conducted at 50 μM HPP
T2 construct: GST (factor Xa cleavage site) (N); made in house; host or cells: Sf9 insect cells (baculovirus, pAcG3X), membrane fraction
T2 sequence (Q1ACB3 70-386): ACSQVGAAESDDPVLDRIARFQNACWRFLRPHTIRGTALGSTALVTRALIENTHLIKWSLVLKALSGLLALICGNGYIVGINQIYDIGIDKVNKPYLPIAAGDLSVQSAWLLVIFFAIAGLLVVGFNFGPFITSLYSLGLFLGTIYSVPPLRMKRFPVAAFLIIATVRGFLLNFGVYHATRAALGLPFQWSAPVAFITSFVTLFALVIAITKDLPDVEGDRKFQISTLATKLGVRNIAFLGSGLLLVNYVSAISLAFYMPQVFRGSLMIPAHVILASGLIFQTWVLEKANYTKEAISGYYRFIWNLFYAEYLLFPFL

In the case of CC(C)C(=O)OC1=C(c2cc(Cl)ccc2C(F)(F)F)S(=O)(=O)N(CC(F)F)c2nccnc21 [Compound 3.6], the “% damage at 7 DAT” value ([1]; 150 gai/ha) is reported as 10% (2×) and 70% (2×) and 30% and 20% and 65% and 25%, the “% damage at 7 DAT” value ([1]; 300 gai/ha) is reported as 65% and 35% and 7% and 85% (2×) and 80% and 75% and 40% and the “% damage at 7 DAT” value ([1]; 450 gai/ha) is reported as 55% and 25% (2×) and 65% (2×) and 70% and 80% and 75%. For the same compound, the “% damage at 7 DAT” value ([2]; 150 gai/ha) was 80%, the “percent damage at 6 DAT” value ([2]; 300 g/ha, WT, reps) was 65% and the “% damage at 7 DAT” value ([2]; 300 gai/ha) was 80% (2×) and 75%. For the same compound, the “% damage at 7 DAT” value ([2]; 450 gai/ha) was 85%, the “% damage at 7 DAT” value ([3]; 150 gai/ha) was 60% and the “% damage at 7 DAT” value ([3]; 300 gai/ha) was 65% (3×) and 70%. For the same compound, the “% damage at 7 DAT” value ([3]; 450 gai/ha) was 65%.
For Cc1cc(C)c(-c2c(O)c3nccnc3n(CC(F)F)c2=O)c(C)c1 [Compound 2.11], the inhibition at 25 ppm (Chlamydomonas HST) was 80%, the “Spinach chloroplast extract % I at 25 ppm” value [4] was 30% and the “Estimated IC50 (ppm)” value (Arabidopsis HST) was 31* ppm.
